System: Runx2 and OCN
Test: Western blot of Runx2 and OCN in bone marrow cells of PA-treated mice
Assay type: in vivo, C57BL/6 mice
Protocol: Marrow cells were obtained from the left femur of PA- and vehicle-treated animals (n=6 per group) by flushing with Dulbecco's alpha modified medium (DMEM). Red blood cells in marrow cells were hemolyzed in 0.017 M tris-HCl, pH 7.5, buffer containing 0.8% ammonium chloride. Hemolyzed bone marrow suspensions were rinsed twice with phosphate buffered saline (PBS). Protein extracts were obtained after suspending the cells in 2 volumes of buffer containing 10 mM EDTA, 0.5 mM phenylmethylsulfonyl fluoride, and one Complete™ protease inhibitor mixture tablet (Boehringer Mannheim, Laval, Quebec, Canada). […] Protein content was determined with a protein assay kit (Bio-Rad. Mississauga, Ontario), and samples were then aliquoted and stored at −80° C. […] Antigen-antibody complexes were detected by chemiluminescence using a kit of reagents from ECL (Amersham, UK) and blots were exposed to high-performance chemiluminescence film (Amersham, UK). Films were scanned and the optical density of each specific band analysed using the ImageMaster program and expressed as OD/mm2/100 μg of total protein. Relative intensity of the samples was determined comparing the protein of interest in the treated mice using the values of vehicle-treated mice as controls (100%). […]

O=C(O)c1ccccn1 [PA, pyridine-2-carboxylic acid]
protein expression of OCN and Runx2 (immunoblot): significant increase

Reference: US9642897B2, “Treatment of bone diseases” (THE UNIVERSITY OF SYDNEY, priority 2011, dated 2017)
